According to patent publication US12152083B2 (priority 2014, dated 2024):

Experiments:
Jurkat cells = experiment: Cell cycle arrest assay; assay type: cell-based; details: 50 nM, 24 h, propidium iodide
Method: Jurkat cells (ATCC), cultured in RMPI-1640 media supplemented with 10% FBS, were obtained in logarithmic growth. 1 million cells/ml were seeded into a 12-well tissue-culture treated plate in a 950 μL volume. Cells were treated with Compound 5 in 50 μL of growth media such that the final concentration of Compound 5 was 50 nM, control cells were given 50 μL of growth media alone. Cells were incubated for 24 h at 37° C., 5% CO2 in a humidified incubator. Following incubation, cells were thoroughly resuspended and transferred to 5 mL FACS tubes, and stored on ice. Two washes were performed by spinning cells down in a swinging-bucket centrifuge at 450×g for 4 min, resuspending in 1 mL ice-cold PBS. Cells were fixed through the addition of 3 mL ice-cold 100% ethanol in a dropwise fashion under vortex, and immediately stored at 4° C. for 1 h. During the 1 h incubation, the following staining solution was prepared in ice-cold PBS: 10 μg/ml propidium iodide, 10 U/ml RNAse 1f, and 0.05% Triton X-100. Following the 1 h fixation incubation, ethanol was removed by spinning cells as described above, and washing twice in 1 mL ice-cold PBS. Cells were resuspended in 500 μL of the above-mentioned staining solution, and incubated at room temperature for 1 h. […] Histograms were generated using FCS Express, plotting # of events against fluorescence in FL-3.

[1] = test system: Human T-cell leukemia cell line Jurkat; experiment: Cellular cytotoxicity of compounds, Example 3.1 (CellTiter-Glo); assay type: cell-based; details: three nights
Method: (§1) Compounds were tested on one or more of Human T-cell leukemia cell line Jurkat (ATCC: TIB-152); Human breast cancer cell lines HCC1954 (ATCC: CRL-2338) and JIMT-1 (DSMZ: ACC 589); Human Pancreatic cell line BxPC-3 (ATCC: CRL.1687), Human ovarian adenocarcinoma cell line SK-OV-3 (ATCC: HTB-77) and Human gastric carcinoma cell line NCI-N87 (ATCC: CRL. 5822); to assess their cytotoxicity.
(§2) Briefly, cells were obtained from commercial sources and cultured as described in the product sheet provided. Cells were removed from their culture vessels and the resulting cell suspension was counted using a ViCell (Beckman Coulter), then seeded at 25,000 cells/mL (2,500 cells/well) in Costar 3904 black walled, flat bottomed 96-well plates (cells were seeded in the inner 60 wells of 96-well TC plates, and outer edge wells filled with water). Adherent cell lines were incubated for one night at 37° C./5% CO2 atmosphere to allow the cells to attach to the microtiter plate surface, while suspension (Jurkat) cells were plated immediately before use. Cytotoxins were dissolved and serially diluted in dimethyl sulfoxide and then the solutions were added to complete growth medium at five-times the desired maximum final concentration. The cytotoxins were then titrated in growth medium, normally 1:3, over eight steps. A control with no test article present (growth medium alone) was included on each microtiter plate in sextuplicate. The prepared toxin titrations were added (25 μL/well) in triplicate to each cell line assayed. […] After the incubation, cell viability was measured using CellTiter-Glo® by adding 30 μL of prepared CellTiter-Glo® reagent to each assay well. The mixtures were incubated for at least twenty minutes in the dark prior to measuring emitted luminescence using a microplate luminometer (500 ms integration time). The collected relative luminescence units (RLU) were converted to % cytotoxicity using the growth medium alone control mentioned above (% Cytotoxicity=1−[well RLU/average medium alone control RLU]×[…]).

[2] = test system: Human Pancreatic cell line BxPC-3; experiment: as above; assay type: cell-based; details: five nights
Method: as §1, §2

[3] = test system: Human gastric carcinoma cell line NCI-N87; experiment: as above; assay type: cell-based; details: five nights
Method: as §1, §2

[4] = test system: Jurkat, HCC1954, NCI-N87, BxPC-3, SK-OV-3, and JIMT-1 Cell Lines; experiment: Cellular cytotoxicity, Example 3.1, control cytotoxin on all cell lines; assay type: cell-based, Human; details: Example 3.1 cell lines
Method: as §1
Briefly, cells were obtained from commercial sources and cultured as described in the product sheet provided. Cells were removed from their culture vessels and the resulting cell suspension was counted using a ViCell (Beckman Coulter), then seeded at 25,000 cells/mL (2,500 cells/well) in Costar 3904 black walled, flat bottomed 96-well plates (cells were seeded in the inner 60 wells of 96-well TC plates, and outer edge wells filled with water). […] After the incubation, cell viability was measured using CellTiter-Glo® by adding 30 μL of prepared CellTiter-Glo® reagent to each assay well. The mixtures were incubated for at least twenty minutes in the dark prior to measuring emitted luminescence using a microplate luminometer (500 ms integration time). The collected relative luminescence units (RLU) were converted to % cytotoxicity using the growth medium alone control mentioned above (% Cytotoxicity=1−[well RLU/average medium alone control RLU]×[…]).

Jurkat cell line = experiment: Cytotoxicity of compounds, Example 3 (CellTiter-Glo, 3 days); assay type: cell-based, Human; details: titrated 1:3 starting with 30 nM
Method: Compounds were tested on Jurkat and HCC1954 cell lines to assess their cytotoxicity. Compounds were titrated 1:3 starting at various concentrations (30 nM to 1000 nM). Control cytotoxin HTI-286 (see, e.g., U.S. Pat. No. 7,579,323) was also titrated 1:3 across starting with a 30 nM concentration. Plates were incubated for 3 days. Cell viability was quantified using 30 μL/well of 1× CellTiter-Glo reagent.
Each cell line was grown in its respective growth medium until seeding day. Cells were removed from their culture vessels and the resulting cell suspension was counted using the ViCell. Cells were then diluted in their growth medium to 25000/mL such that 100 μL/well=2500 cells/well. Each cell line was seeded in the inner 60 wells of 96-well black walled TC plates, outer wells filled with water. HCC1954 were seeded a day prior to assay set up. Cytotoxins were diluted as described below a 5× dose-response of each compound was prepared using RPMI+10% FBS in a deep-well 96-well plate. This “master” dilution plate was used for each cell line. 25 μL of the 5× dose responses was spiked into each cell line in triplicate. The plates were returned to the incubator and were incubated for 3 nights. After the 3 nights, cell viability was quantified using 30 μL/well of 1× CellTiter-glo reagent. After at least 10 minutes of incubation, the luminescence was measured using the SpectraMax (500 ms integration).

SMILES: CC[C@H](C)[C@@H]([C@@H](CC(=O)N1CCC[C@H]1[C@H](OC)[C@@H](C)C(=O)NS(=O)(=O)c1ccc(N)cc1)OC)N(C)C(=O)[C@@H](NC(=O)[C@H](C(C)C)N(C)C)C(C)C [Compound 5, (S)—N-((3R,4S,5S)-1-((S)-2-((1R,2R)-3-(4-Aminophenylsulfonamido)-1-methoxy-2-methyl-3-oxopropyl)pyrrolidin-1-yl)-3-methoxy-5-methyl-1-oxoheptan-4-yl)-2-((S)-2-(dimethylamino)-3-methylbutanamido)-N,3-dimethylbutanamide]
- DNA content histograms, cell cycle phase (Jurkat cells): pronounced shift towards G2/M phase of the cell cycle

SMILES: CC[C@H](C)[C@@H]([C@@H](CC(=O)N1CCC[C@H]1[C@H](OC)[C@@H](C)C(=O)NS(=O)(=O)c1ccc(NC(=O)C(F)(F)F)cc1)OC)N(C)C(=O)[C@@H](NC(=O)[C@@H](NC)C(C)(C)c1ccccc1)C(C)C [Compound 18]
- EC50 [1]: 1.5 nM
- EC50 [2]: 2.3 nM
- EC50 [3]: 0.9 nM

SMILES: CN[C@H](C(=O)N[C@H](C(=O)N(C)[C@H](/C=C(\C)C(=O)O)C(C)C)C(C)(C)C)C(C)(C)c1ccccc1 [HTI-286]
- killing of all cell lines by control cytotoxin [4]: successfully killed all cell lines at an expected concentration
- killing of Jurkats by control cytotoxin (Jurkat cell line): successfully killed Jurkats at an expected concentration
